Our source for the TGI values is PubChem BioAssay (NCI).

The structures appear in SMILES notation.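 Five compound concentrations were applied to cells in 96-well plates for 48 hours; endpoints were derived by simple linear interpolation of the resulting dose-response curve. TGI marks complete inhibition of growth.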

Some test systems named below: TK-10 renal; ACHN renal; OVCAR-3 ovarian; M14 melanoma; MALME-3M melanoma; LXFL 529 NSCLC; DLD-1 colon; SN12C renal; NCI-H522 lung; SF-539 CNS.
Holding throughout (experiment): growth of human tumour cells (NCI), 48 h

Consider `CN(C)c1nc2ccccc2[nH]1`, for which the TGI in the assay with TK-10 renal, with ACHN renal, in the assay on OVCAR-3 ovarian, in the assay with M14 melanoma, with MALME-3M melanoma and with LXFL 529 NSCLC was over 100 µM throughout. Besides, the TGI in the assay on DLD-1 colon, in the assay on SN12C renal, in the assay with NCI-H522 lung and with SF-539 CNS was over 100 µM in each case.
With `NNC(=S)N/N=C(\CC1OC(=O)c2ccccc21)c1ccccc1O` (stereo not given), the TGI with TK-10 renal, in the assay on ACHN renal, in the assay with OVCAR-3 ovarian, with M14 melanoma, with MALME-3M melanoma and in the assay with LXFL 529 NSCLC was over 100 µM in each case. The TGI is over 100 µM in the assay with DLD-1 colon, over 100 µM in the assay with SN12C renal, 83.8 µM with NCI-H522 lung and 43.7 µM in the assay on SF-539 CNS.
On to `N#CC(N)(C(=O)CCC(=O)Nc1cccc(Cl)c1)c1ccc(Cl)cc1` (stereo not given), for which the TGI in the assay with TK-10 renal, in the assay on ACHN renal, in the assay on OVCAR-3 ovarian, in the assay on M14 melanoma, with MALME-3M melanoma and in the assay on LXFL 529 NSCLC was over 100 µM in each case. Also, the TGI in the assay on DLD-1 colon, with SN12C renal, in the assay on NCI-H522 lung and in the assay with SF-539 CNS was over 100 µM in each case.
With `O=S1(=O)C[C@H](O)[C@H](O)CS1`, the TGI in the assay on TK-10 renal, in the assay with ACHN renal, in the assay on OVCAR-3 ovarian, in the assay on M14 melanoma, in the assay on MALME-3M melanoma and in the assay on LXFL 529 NSCLC was over 100 µM in each case. Moreover, the TGI in the assay on DLD-1 colon, in the assay with SN12C renal, in the assay with NCI-H522 lung and with SF-539 CNS was over 100 µM throughout.
Regarding `CCCN=C(N)NC#N`, the TGI with TK-10 renal, in the assay with ACHN renal, in the assay on OVCAR-3 ovarian, with M14 melanoma, in the assay on MALME-3M melanoma and in the assay with LXFL 529 NSCLC was over 100 µM throughout. In addition, the TGI in the assay with DLD-1 colon, in the assay on SN12C renal, in the assay with NCI-H522 lung and in the assay on SF-539 CNS was over 100 µM in each case.
Regarding `CNC(=O)N(C)N=NCCCl`, the TGI in the assay on TK-10 renal, with ACHN renal, in the assay with OVCAR-3 ovarian, in the assay with M14 melanoma, in the assay on MALME-3M melanoma and with LXFL 529 NSCLC was over 100 µM each time. The TGI in the assay with DLD-1 colon, with SN12C renal, with NCI-H522 lung and with SF-539 CNS was over 100 µM throughout.
Take `O=c1[nH]c(=O)n(C2OC(CO)C(O)C2O)cc1NN=NCc1ccccc1` (stereo not given): the TGI in the assay on TK-10 renal, in the assay with ACHN renal, in the assay on OVCAR-3 ovarian, with M14 melanoma, in the assay on MALME-3M melanoma and with LXFL 529 NSCLC was over 100 µM in each case. For the same compound, the TGI is over 77.4 µM with DLD-1 colon, over 100 µM in the assay with SN12C renal, over 100 µM in the assay with NCI-H522 lung and over 100 µM with SF-539 CNS.
Turning to `O=C(CCn1[nH]c(=O)c(Cl)c(Cl)c1=O)NO`, the TGI in the assay on TK-10 renal, in the assay on ACHN renal, in the assay on OVCAR-3 ovarian, in the assay with M14 melanoma, in the assay on MALME-3M melanoma and in the assay with LXFL 529 NSCLC was over 100 µM each time. Besides, the TGI with DLD-1 colon, with SN12C renal, in the assay with NCI-H522 lung and with SF-539 CNS was over 100 µM in each case.
With `CC(C)(C)CC(C)(C)c1cc2c(O)c(c1)Cc1cc(C(C)(C)CC(C)(C)C)cc(c1O)Cc1cc(C(C)(C)CC(C)(C)C)cc(c1O)Cc1cc(C(C)(C)CC(C)(C)C)cc(c1O)C2`, the TGI in the assay with TK-10 renal, in the assay with ACHN renal, in the assay on OVCAR-3 ovarian, in the assay on M14 melanoma, in the assay with MALME-3M melanoma and in the assay with LXFL 529 NSCLC was over 100 µM in each case. Further, the TGI in the assay with DLD-1 colon, with SN12C renal, in the assay on NCI-H522 lung and in the assay on SF-539 CNS was over 100 µM in each case.
With `N#Cc1nc(Nc2cccc3ccccc23)sc1N`, the TGI in the assay with TK-10 renal was 76.9 µM; in the assay with ACHN renal, 75.3 µM; in the assay with OVCAR-3 ovarian it was over 100 µM; in the assay with M14 melanoma, over 100 µM; in the assay on MALME-3M melanoma, over 100 µM; in the assay with LXFL 529 NSCLC it was over 100 µM. Also, the TGI with DLD-1 colon was over 100 µM; in the assay on SN12C renal, over 100 µM; in the assay on NCI-H522 lung, 46.4 µM; in the assay on SF-539 CNS, 76.6 µM.
`COC(=O)c1cc2c(s1)C(=O)c1ccccc1-2`: the TGI in the assay on TK-10 renal, with ACHN renal, in the assay on OVCAR-3 ovarian, in the assay with M14 melanoma, in the assay with MALME-3M melanoma and with LXFL 529 NSCLC was over 100 µM throughout. In addition, the TGI in the assay on DLD-1 colon, with SN12C renal, with NCI-H522 lung and in the assay with SF-539 CNS was over 100 µM in each case.
Consider `Cc1ccc(S(=O)(=O)N(CC(=O)O)c2ccccc2)cc1`, for which the TGI with TK-10 renal, with ACHN renal, in the assay on OVCAR-3 ovarian, in the assay with M14 melanoma, in the assay on MALME-3M melanoma and with LXFL 529 NSCLC was over 100 µM each time. The TGI in the assay with DLD-1 colon, in the assay with SN12C renal, in the assay with NCI-H522 lung and in the assay with SF-539 CNS was over 100 µM throughout.
In the case of `CC(CCC=O)CCOCc1ccccc1` (stereo not given), the TGI in the assay with TK-10 renal, in the assay on ACHN renal, in the assay on OVCAR-3 ovarian, in the assay with M14 melanoma, in the assay on MALME-3M melanoma and with LXFL 529 NSCLC was over 100 µM in each case. The TGI with DLD-1 colon, with SN12C renal, in the assay with NCI-H522 lung and in the assay on SF-539 CNS was over 100 µM throughout.
